{
  "source": "patent US20210108199A1",
  "about": "“Treatment for aggressive cancers by targeting C9ORF72” (The Trustees of Columbia University in the City of New York, priority 2017, published 2021)",
  "type_in_all_cases": "cell-based",
  "key": {"U87 cells [1]": {"test_system": "U87 cells", "test": "Transmission electron microscopy of vacuoles", "settings": "72 hours of KD", "protocol": "Since endocytic vacuoles (including macropinosomes) are known to have a single membrane U87 cells treated with control and siC9 siRNA (SEQ ID NO:631) were imaged using transmission electron microscopy (TEM). […] FIG. 13 is a set of representative TEM images of U87 cells treated with Control (siCtrl) and C9 (siC9) siRNA after 72 hours of KD. One asterisk indicates representative vacuoles; two asterisks represent membrane folding. The white boxes in FIG. 13A and FIG. 13B show locations for the digital zoomed-in images below, in FIG. 13C and FIG. 13D. The scale bar represents 5 μm."}, "[2]": {"test_system": "HCC1937 cells (with BRCA1 mutation)", "test": "CellTiter-Glo viability assay in HCC1937 cells", "protocol": "[…] (HCC1937, with BRCA1 mutation) cells were harvested using trypsin (0.5 ml per well) and the media was saved from each well. The saved media were resuspended with the trypsinised cells and 2-3 aliquots (0.05 ml each) of this suspension was transferred to 96-well plates. HCC cells were subjected to S1 and S2 as described above. A CellTiter-Glo™ Luminescent Viability assay was used to measure the viability of these aliquots by adding 0.15 mL of the CTG-media mixture to each well. The rest of the culture was used to extract protein. Viability of cells was measured using the 1:1 dilution of the CellTiter-Glo™ Luminescent reagent (Promega™) with media, which was read on a Victor 5™ plate reader after 10 minutes of shaking at room temperature. The intensity of luminescence was normalized to that of the DMSO control.\nWithout being bound to any particular theory, it is believed that this is because PARP1 is inhibited which is known to cause death in BRCA1 deficient breast cancer cell lines."}, "U87 cells [3]": {"test_system": "U87 cells", "test": "Vacuole quantitation in phase contrast images after C9 KD", "settings": "3 days, vs siCtrl", "protocol": "For siRNA knockdown experiments, siRNAs targeting C9 mRNA were designed with the Whitehead website (sirna.wi.mit.edu) and with RNAxs webserver (rna.tbi.univie.ac.at/cgi-bin/RNAxs). All siRNAs were obtained from GenePharma™. Lipofectamine RNAiMAX (Thermo Scientific™) was used as the transfection reagent for all siRNA experiments (according to the manufacturer's instructions). siRNA concentration was 40 nM per 60 mm plate. After 6 hours, media was changed and cells were treated again with siRNA after 48 hours. For RNA and protein analysis, cells were harvested after 48 hours following the second treatment. All KD experiments were performed in three biological replicates. The siRNA sequences were as follows: […] (SEQ ID NO:631; sense) and […] (SEQ ID NO:632; antisense); and GCACAUAUGGACUAUCAAUtt (SEQ ID NO:633; sense) and AUUGAUAGUCCAUAUGUGCtg (SEQ ID NO:634; antisense). The lower case letters in the sequence indicate location where optional modifications can be placed to enhance stability of the RNA.\nThe vacuoles were examined in order to reveal the mechanism by which C9 protein levels contribute to vacuole initiation. […] The number of vacuoles per cell were counted using imageJ™ from 3 biological replicates and a total of about 50 cells were quantitated, each dot representing a measurement of vacuoles per one cell FIG. 2A). […] Statistical significance was assessed by two tailed t-test. […]"}, "[4]": {"test_system": "RAS/RAC1 signaling pathway", "test": "Western blot of RAS, RAC1 and phospho-ERK", "settings": "U87 cells", "protocol": "For Western blot analysis, cells were lysed with lysis buffer (20 mM sodium phosphate (pH 7.0), 250 mM NaCl, 30 mM sodium pyrophosphate, 0.1% Nonidet™ P-40, 5 mM EDTA, 10 mM NaF, 0.1 mM Na3VO4, and 1 mM PMSF) supplemented with complete protease inhibitors (Roche™) and homogenized by passage through a 28 gauge needle. Protein concentration was measured with a Bio-Rad™ protein assay dye reagent and results were read using a spectrophotometer (BiophotometerPlus™ by Eppendorf™). Protein extracts were resolved by SDS PAGE on gradient (Thermo Fisher™) or 12% gels. Proteins were then electrotransferred at 350 mA for 80 minutes onto a PVDF membrane (Immobilon-P PVDF). Membranes were blocked with PBST with 5% milk and 1% BSA for 30 minutes. Quantitation of blots was performed Image Studio Lite software (LI-COR Biosciences™).\nMacropinocytosis is reported to be dependent on RAS and/or RAC1 activation, therefore whether the RAS/RAC1 signaling pathway is activated upon C9 KD was explored. First, RAS and RAC1 protein levels were measured in U87 cells upon C9 KD. […] If the RAS/RAC1 pathway is active, then ERK1/2 phosphorylation should be observed. FIG. 14 is a WB of U87 cells treated with control (siCtrl) and C9 siRNA (siC9; SEQ ID NO:631) measuring protein levels of RAS and phospho-ERK and loading control actin (left) and a WB showing RAC1 levels under the same conditions with actin as loading control (right). […] Therefore both macropinocytosis and RAS/RAC1 signaling pathways are a possible therapeutic targets in C9 ALS."}},
  "data": [
    {"substance": "siC9: siRNA targeting C9 mRNA: UUAAUGAAACAAUAAUCACUC (SEQ ID NO:631; sense) and GUGAUUAUUGUUUCAUUAAUC (SEQ ID NO:632; antisense) (listed as RNA, chemistry not given here)", "values": [
      {"measurement": "vacuole appearance in TEM", "setting": "U87 cells [1]", "result": "electron-transparent and had a single membrane"},
      {"measurement": "cell viability", "setting": "[2]", "result": "decrease in their viability"},
      {"measurement": "size of vacuoles", "setting": "U87 cells [3]", "result": "significant increase"},
      {"measurement": "total vacuoles per cell", "setting": "U87 cells [3]", "result": "significant increase"},
      {"measurement": "RAC1 protein levels", "setting": "[4]", "result": "elevated"},
      {"measurement": "RAS protein levels", "setting": "[4]", "result": "elevated"},
      {"measurement": "phosphorylation of ERK1/2", "setting": "[4]", "result": "increased phosphorylation"}
    ]}
  ]
}
